According to patent EP2084544B1, “STABLE STANDARDS FOR BNP IMMUNOASSAYS” (Hytest Ltd., priority 2006, dated 2011):

Test: Stability of BNP immunoreactivity of antigens incubated in pooled human citrate plasma, measured by sandwich immunofluorometric assay (MAbs 50E1 / 24C5-Eu)
Assay type: in vitro ADME
From the text: Antigens used in the studies. The antigens used in the stability studies included synthetic BNP-32 (Bachem, Bubendorf, Switzerland, cat. no. H-9060.0500), synthetic BNP-32 (Peptide Institute, Osaka, Japan, cat. no. 4212-v), recombinant proBNP (expressed in E. coli, non-glycosylated, from Hytest Ltd., Turku, Finland, 8PRO8), recombinant proBNP (expressed in eukaryotic CHO (Chinese hamster) cells and, thus, glycosylated, as described herein), and recombinant proBNP (expressed in eukaryotic HEK (human) cells and, thus, glycosylated, as described herein).
Antigen solutions. An antigen matrix was prepared by pooling human citrate plasmas collected from healthy donors. Plasma was obtained from 15 healthy volunteers by vein puncture and mixed with 0.11 M sodium citrate tribasic in a ratio of 4:1. The crude serum:citrate was centrifuged for 30 minutes at 2000 rpm. Plasma was decanted, pooled and stored at -70°C until use. Antigen concentrations used in the studies were 6 ng/ml for recombinant proBNP expressed in CHO cells, 20 ng/ml for synthetic BNPs, 20 ng/ml for recombinant proBNP expressed in E. coli and 20 ng/ml for recombinant proBNP expressed in HEK cells. 0.1 % sodium azide was added to plasma as a preservative to prevent bacterial growth.
Incubation at 4°C and 25°C. Antigen solutions in human plasma were incubated for different time periods (up to 96 hours) at 4°C and 25°C. Aliquots were frozen and stored at -70°C until BNP immunoreactivity was measured.
Assays for BNP immunoreactivity. BNP immunoreactivity in the samples was determined by sandwich immunofluorometric assay utilizing two BNP-specific monoclonal antibodies (MAbs). […]
MAb 24C5 specifically recognized and bound to peptide 11-22 of the BNP sequence and was conjugated to stable Eu^3+ chelate using conventional techniques. […] Consequently, it can be used for the quantification of whole BNP immunoreactivity, comprising both BNP and proBNP.

With CC[C@H](C)[C@@H]1NC(=O)[C@H](CCCNC(=N)N)NC(=O)[C@H](CC(=O)O)NC(=O)[C@H](CCSC)NC(=O)[C@H](CCCCN)NC(=O)[C@H](CCCNC(=N)N)NC(=O)CNC(=O)[C@H](Cc2ccccc2)NC(=O)[C@@H](NC(=O)CNC(=O)[C@H](CO)NC(=O)CNC(=O)[C@H](CCC(N)=O)NC(=O)[C@@H](NC(=O)[C@H](CCSC)NC(=O)[C@H](CCCCN)NC(=O)[C@@H]2CCCN2C(=O)[C@@H](N)CO)C(C)C)CSSC[C@@H](C(=O)N[C@@H](CCCCN)C(=O)N[C@H](C(=O)N[C@@H](CC(C)C)C(=O)N[C@@H](CCCN=C(N)N)C(=O)N[C@@H](CCCN=C(N)N)C(=O)N[C@@H](Cc2cnc[nH]2)C(=O)O)C(C)C)NC(=O)CNC(=O)[C@H](CC(C)C)NC(=O)CNC(=O)[C@H](CO)NC(=O)[C@H](CO)NC(=O)[C@H](CO)NC(=O)[C@H](CO)NC1=O [Synthetic BNP-32] the “immunoreactivity detected after incubation (in words)” value (96 hours of incubation at 4°C) was “Almost no immunoreactivity”, the “immunoreactivity detected after incubation (in words)” value (96 hours of incubation at 25°C) was “Almost no immunoreactivity” and the “stability among the tested protein forms displaying BNP immunoreactivity (rank in words)” value (incubation up to 96 hours at 4°C and 25°C) was “worst stability”.
